For test [1], the system named is GCGR. Particulars: cognate receptor, ref Yuliantie et al., 2020, Darbalaei et al.; cited from earlier work.
For test [2], the target named is T1, human GIPR Y68A, HA-Flag-3GSA-GIPR(22-466) (human) (UniProt P48546).
T1 sequence: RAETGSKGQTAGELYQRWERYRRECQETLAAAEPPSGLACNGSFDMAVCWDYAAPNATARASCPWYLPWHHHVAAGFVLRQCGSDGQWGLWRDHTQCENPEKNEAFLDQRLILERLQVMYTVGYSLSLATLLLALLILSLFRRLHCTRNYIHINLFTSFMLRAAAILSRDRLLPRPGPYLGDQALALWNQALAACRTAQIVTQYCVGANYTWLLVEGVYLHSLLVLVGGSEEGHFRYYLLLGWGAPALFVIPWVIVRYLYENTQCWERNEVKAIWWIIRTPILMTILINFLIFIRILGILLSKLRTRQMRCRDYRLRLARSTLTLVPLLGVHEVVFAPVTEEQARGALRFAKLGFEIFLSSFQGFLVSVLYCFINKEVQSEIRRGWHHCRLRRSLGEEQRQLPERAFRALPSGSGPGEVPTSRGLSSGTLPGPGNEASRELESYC

Test [3] relates to GIPR. The note with it: maximum response compared with human GIP; ref Sparre-Ulrich et al., 2016; Bailey, 2020; cited from earlier work. From the text:
Species differences in class B1 receptor responsiveness are diversified and receptor specific, which is tolerable for some receptors such as GLP-1R and GCGR, but leads to concerns for others like GIPR and parathyroid hormone receptor-2 (PTH2R) ([Sparre-Ulrich et al., 2016]; [Hoare et al., 1999]). […] Such a divergence is not caused by changes in peptide potency, but r ...

Regarding glucagon, in test [1], the negative logarithm of the IC50 (pIC50) was 7.31.

For the substance “glucose-dependent insulinotropic polypeptide GIP(1-42) (from UniProt P09681 52-93)”, the GIP(1-42)-stimulated cAMP accumulation in HEK 293T cells, pEC50 in test [2] worked out at 6.79. As for “Human (Pro3)GIP: full agonist with identical maximum response as human GIP (YAPGTFISDYSIAMDKIHQQDFVNWLLAQKGKKNDWKHNITQ; Gastric inhibitory polypeptide; UniProt P09681 52-93, looked up, variant E3P)”, the agonism result in test [3] is given as “full agonist with identical maximum response as human GIP”.

One may read the pIC50 as −log10 of the IC50, conventionally taken in molar units.

Source of the values: article PMC8298097 (eLife, 2021).
